Earlier results in patent US20050227966A1 (Wyeth, priority 2004, published 2005).

Experiments:
uterine response = settings: preclinical models of uterine stimulation
[1] = tested on: MCF-7 cell line (human breast cancer cell line); settings: MCF-7 cells
[2] = tested on: ovariectomized rat model of osteopenia

Structure (SMILES): Cc1c(-c2ccc(O)cc2)n(Cc2ccc(OCCN3CCCCCC3)cc2)c2ccc(O)cc12 [bazedoxifene acetate, 1-[4-(2-azepan-1-yl-ethoxy)-benzyl]-2-(4-hydroxy-phenyl)-3-methyl-1H-indol-5-ol acetic acid]
- stimulation of uterine response (uterine response): little or no stimulation
- estrogen agonist/antagonist behaviour [1]: estrogen antagonist
- effect in preventing bone loss and reducing cholesterol [2]: estrogen agonist-like effect
